This is an account of results in PubChem BioAssay AID256 (DTP/NCI, 2004).

For the assay, the system named is CD2F1 mice, L1210 leukemia ip, survival T/C. Nature of the assay: NCI In Vivo Anticancer Drug Screen. Data for tumor model L1210 Leukemia (intraperitoneal) in CD2F1 (CDF1) mice. The note with it: higher = longer survival. The essentials: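 Tumor-bearing mice (transplanted tumor) were split into treated and vehicle control groups, and the measured endpoint of each treated group was divided by that of its vehicle controls.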

Where [1] appears, read: endpoint: mean survival time, dose: 0.5 mg/kg/injection, schedule: Q01DX009 (ip), vehicle: saline with Tween-80.
The mark [2] stands for this setting: endpoint: mean survival time, dose: 1.0 mg/kg/injection, schedule: Q01DX009 (ip), vehicle: saline with Tween-80.
Setting [3] is: endpoint: mean survival time, dose: 2.0 mg/kg/injection, schedule: Q01DX009 (ip), vehicle: saline with Tween-80.
The mark [4] stands for this setting: endpoint: mean survival time, dose: 50.0 mg/kg/injection, schedule: Q04DX003 (ip), vehicle: saline with Tween-80.
Where [5] appears, read: endpoint: mean survival time, dose: 100.0 mg/kg/injection, schedule: Q04DX003 (ip), vehicle: saline with Tween-80.
[6] abbreviates: endpoint: mean survival time, dose: 200.0 mg/kg/injection, schedule: Q04DX003 (ip), vehicle: saline with Tween-80.
Setting [7] is: endpoint: mean survival time, dose: 400.0 mg/kg/injection, schedule: Q04DX003 (ip), vehicle: saline with Tween-80.
Setting [8] is: endpoint: mean survival time, dose: 100.0 mg/kg/injection, schedule: Q01DX009 (ip), vehicle: saline with Tween-80.
The mark [9] stands for this setting: endpoint: mean survival time, dose: 200.0 mg/kg/injection, schedule: Q01DX009 (ip), vehicle: saline with Tween-80.

“And” between values parts separate entries of the source, which are not always exact repeats. Equal values may be shown once. Inconclusive results and toxic doses are left out.

For `COC(=O)CC(O)(CCCC(C)(C)O)C(=O)OC1C(OC)=CC23CCCN2CCc2cc4c(cc2C13)OCO4` (configuration not stated) (tested in a mixture with another compound), the T/C by setting is: (endpoint: mean survival time, dose: 0.25 mg/kg/injection, schedule: Q01DX009 (ip), vehicle: saline with Tween-80) 112 % of control; under setting [1], 115 % of control; under setting [2], 115 % of control; under setting [3], 124 % of control.
For `Cc1cc(=O)n(C)c2ccccc12`, the T/C reads like this: under setting [4], 95 % of control; under setting [5], 103 % of control; under setting [6], 97 % of control.
As for `Nc1ccccc1Sc1ccc2c3c(cccc13)C(=O)N(c1ccccc1)C2=O`, the T/C (endpoint: mean survival time, dose: 25.0 mg/kg/injection, schedule: Q04DX002 (ip), vehicle: saline with Tween-80) was 95 % of control; the T/C (endpoint: mean survival time, dose: 50.0 mg/kg/injection, schedule: Q04DX002 (ip), vehicle: saline with Tween-80) was 98 % of control; the T/C (endpoint: mean survival time, dose: 100.0 mg/kg/injection, schedule: Q04DX002 (ip), vehicle: saline with Tween-80) is 87 % of control.
In the case of `CC1CC([NH-])C([NH-])C(C)(C)C1.[Cl][Pt+2][Cl]` (configuration not stated), the T/C by setting is: (endpoint: median survival time, dose: 10.0 mg/kg/injection, schedule: Q04DX003 (ip), vehicle: Klucel (hydroxypropylcellulose) (HPC)) 117 % of control; (endpoint: median survival time, dose: 50.0 mg/kg/injection, schedule: Q04DX003 (ip), vehicle: Klucel + Tween-80) 153 % of control; (endpoint: median survival time, dose: 100.0 mg/kg/injection, schedule: Q04DX003 (ip), vehicle: Klucel + Tween-80) 155 % of control.
Regarding `CCCCCCCCCCCCCCCCCS(=O)S(=O)O` (configuration not stated), the T/C is, setting by setting: under setting [5], 98 % of control; under setting [6], 94 % of control; under setting [7], 93 % of control.
Take `CC(=O)Nc1cc(N(CCOS(C)(=O)=O)CCOS(C)(=O)=O)ccc1N=O`: the T/C (endpoint: mean survival time, dose: 0.25 mg/kg/injection, schedule: Q01DX009 (ip), vehicle: saline) was 117 % of control; the T/C (endpoint: mean survival time, dose: 0.5 mg/kg/injection, schedule: Q01DX009 (ip), vehicle: saline) is 116 % of control; the T/C (endpoint: mean survival time, dose: 1.0 mg/kg/injection, schedule: Q01DX009 (ip), vehicle: saline) was 95 % of control; the T/C (endpoint: mean survival time, dose: 1.5 mg/kg/injection, schedule: Q04DX003 (ip), vehicle: saline) is 120 % of control; the T/C (endpoint: mean survival time, dose: 2.0 mg/kg/injection, schedule: Q01DX009 (ip), vehicle: saline) was 95 % of control; the T/C (endpoint: mean survival time, dose: 3.0 mg/kg/injection, schedule: Q04DX003 (ip), vehicle: saline) was 115 % of control. For the setting “endpoint: mean survival time, dose: 6.0 mg/kg/injection, schedule: Q04DX003 (ip), vehicle: saline”, the T/C is 107 % of control.
Consider `C/C=C(/C)C(=O)O[C@H]1CC[C@@]2(C)[C@@H]3CC[C@H]4[C@]5(O)C[C@H](O)[C@@]6(O)[C@@H](CN7C[C@@H](C)CC[C@H]7[C@@]6(C)O)[C@]5(O)C[C@@]42O[C@@]13O`, for which the T/C is 101 % of control under setting [1], 101 % of control under setting [2] and 101 % of control under setting [3].
As to `CC(C)NCC(O)COc1cccc2ccccc12` (configuration not stated), the T/C by setting is: (endpoint: mean survival time, dose: 4.0 mg/kg/injection, schedule: Q01DX009 (ip), vehicle: Klucel (hydroxypropylcellulose) (HPC)) 94 % of control and 98 % of control and 103 % of control; (endpoint: mean survival time, dose: 8.0 mg/kg/injection, schedule: Q01DX009 (ip), vehicle: Klucel (hydroxypropylcellulose) (HPC)) 94 % of control and 95 % of control and 98 % of control; (endpoint: mean survival time, dose: 16.0 mg/kg/injection, schedule: Q01DX009 (ip), vehicle: Klucel (hydroxypropylcellulose) (HPC)) 91 % of control and 96 % of control and 101 % of control; (endpoint: mean survival time, dose: 32.0 mg/kg/injection, schedule: Q01DX009 (ip), vehicle: Klucel (hydroxypropylcellulose) (HPC)) 87 % of control and 93 % of control and 96 % of control; (endpoint: mean survival time, dose: 64.0 mg/kg/injection, schedule: Q01DX009 (ip), vehicle: Klucel (hydroxypropylcellulose) (HPC)) 84 % of control and 102 % of control and 105 % of control; (endpoint: mean survival time, dose: 128.0 mg/kg/injection, schedule: Q01DX009 (ip), vehicle: Klucel (hydroxypropylcellulose) (HPC)) 120 % of control.
In the case of `Nc1ccc2c(c1)C=CCS2`, the T/C runs as follows: under setting [8], 102 % of control; under setting [5], 104 % of control; under setting [9], 98 % of control; under setting [6], 98 % of control; (endpoint: mean survival time, dose: 400.0 mg/kg/injection, schedule: Q01DX009 (ip), vehicle: saline with Tween-80) 90 % of control; under setting [7], 104 % of control.
Regarding `C=CCOc1ccncc1`, the T/C was 101 % of control (endpoint: mean survival time, dose: 12.5 mg/kg/injection, schedule: Q01DX009 (ip), vehicle: saline sonified); 93 % of control (endpoint: mean survival time, dose: 12.5 mg/kg/injection, schedule: Q04DX003 (ip), vehicle: saline with Tween-80); 100 % of control (endpoint: mean survival time, dose: 25.0 mg/kg/injection, schedule: Q01DX009 (ip), vehicle: saline sonified); 93 % of control (endpoint: mean survival time, dose: 25.0 mg/kg/injection, schedule: Q04DX003 (ip), vehicle: saline with Tween-80); 101 % of control (endpoint: mean survival time, dose: 50.0 mg/kg/injection, schedule: Q01DX009 (ip), vehicle: saline sonified); 93 % of control under setting [4].
Take `CN=C(N)N/N=C(\C)c1ccc2c(c1)Cc1cc(/C(C)=N/NC(N)=NC)ccc1-2`: the T/C is 118 % of control and 124 % of control (endpoint: median survival time, dose: 0.37 mg/kg/injection, schedule: Q01DX009 (ip), vehicle: saline with Tween-80); 121 % of control (endpoint: median survival time, dose: 3.0 mg/kg/injection, schedule: Q01DX009 (ip), vehicle: saline with Tween-80); 92 % of control and 95 % of control (endpoint: median survival time, dose: 6.0 mg/kg/injection, schedule: Q01DX009 (ip), vehicle: saline with Tween-80).
Consider `COc1ccc(C2=NCCc3cc(OC)c(OC)cc32)cc1OC`, for which the T/C (endpoint: mean survival time, dose: 12.5 mg/kg/injection, schedule: Q01DX009 (ip), vehicle: other) is 90 % of control and the T/C (endpoint: mean survival time, dose: 25.0 mg/kg/injection, schedule: Q01DX009 (ip), vehicle: other) was 92 % of control.
Regarding `O=S1CC2(C1)CS(=O)C2` (configuration not stated), the T/C is, setting by setting: (endpoint: mean survival time, dose: 100.0 mg/kg/injection, schedule: Q01DX001 (ip), vehicle: saline) 103 % of control; (endpoint: mean survival time, dose: 200.0 mg/kg/injection, schedule: Q01DX001 (ip), vehicle: saline) 103 % of control; (endpoint: mean survival time, dose: 400.0 mg/kg/injection, schedule: Q01DX001 (ip), vehicle: saline) 100 % of control.
Regarding `S=C1Nc2ccccc2CS1`, the T/C runs as follows: (endpoint: mean survival time, dose: 100.0 mg/kg/injection, schedule: Q01DX001 (ip), vehicle: Klucel (hydroxypropylcellulose) (HPC)) 105 % of control; (endpoint: mean survival time, dose: 200.0 mg/kg/injection, schedule: Q01DX001 (ip), vehicle: Klucel (hydroxypropylcellulose) (HPC)) 102 % of control; (endpoint: mean survival time, dose: 400.0 mg/kg/injection, schedule: Q01DX001 (ip), vehicle: Klucel (hydroxypropylcellulose) (HPC)) 103 % of control.
`Nc1nc(N)c2c(n1)NCN(CCc1cccc(Cl)c1)C2`: the T/C is, setting by setting: (endpoint: mean survival time, dose: 0.75 mg/kg/injection, schedule: Q01DX009 (ip), vehicle: distilled water + Tween-80) 96 % of control; (endpoint: mean survival time, dose: 1.5 mg/kg/injection, schedule: Q01DX009 (ip), vehicle: distilled water + Tween-80) 100 % of control; (endpoint: mean survival time, dose: 3.0 mg/kg/injection, schedule: Q01DX009 (ip), vehicle: distilled water + Tween-80) 98 % of control; (endpoint: mean survival time, dose: 6.0 mg/kg/injection, schedule: Q01DX009 (ip), vehicle: distilled water + Tween-80) 96 % of control; (endpoint: mean survival time, dose: 12.0 mg/kg/injection, schedule: Q01DX009 (ip), vehicle: distilled water + Tween-80) 94 % of control; (endpoint: mean survival time, dose: 24.0 mg/kg/injection, schedule: Q01DX009 (ip), vehicle: distilled water + Tween-80) 94 % of control.
Take `O=[N+]([O-])c1ccc2ccccc2c1-c1c([N+](=O)[O-])ccc2ccccc12`: the T/C was 92 % of control (endpoint: mean survival time, dose: 50.0 mg/kg/injection, schedule: Q01DX009 (ip), vehicle: saline with Tween-80); 90 % of control under setting [8]; 93 % of control under setting [5]; 90 % of control under setting [9]; 87 % of control under setting [6].
For the compound `O=C1C(c2ccccc2)=S=C2Sc3ccccc3N12`, the T/C was 102 % of control (endpoint: mean survival time, dose: 100.0 mg/kg/injection, schedule: Q04DX003 (ip), vehicle: Klucel (hydroxypropylcellulose) (HPC)); 103 % of control (endpoint: mean survival time, dose: 200.0 mg/kg/injection, schedule: Q04DX003 (ip), vehicle: Klucel (hydroxypropylcellulose) (HPC)); 96 % of control (endpoint: mean survival time, dose: 400.0 mg/kg/injection, schedule: Q04DX003 (ip), vehicle: Klucel (hydroxypropylcellulose) (HPC)).
For the compound `COc1ccc2c(c1C)Cc1ccccc1C2=O`, the T/C is 90 % of control under setting [5], 89 % of control under setting [6] and 97 % of control under setting [7].
